System: logarithmic E. coli cells
Test: Preservation survival and stability of logarithmic E. coli cells loaded in vitro before foam drying
Format: cell-based
Conditions: for Preservation Yield (Day 0) % Survival / Preservation Yield (Day 0) Cfu/ml / Stability (Day 7 at RT) % Survival / Stability (Day 7 at RT) Cfu/ml / Stability (Day 14) % Survival / Stability (Day 14) Cfu/ml: loaded with 10% MAG at 37° C. for 30 minutes
Procedure: (3) Loading of fresh electrocompetent E. coli cells before preservation: When applicable, one aliquot of the cell concentrate (3.2 ml of cells in PBS buffer, approx. 2×10^10 cfu/ml) was mixed with 0.8 ml of 50% methyl-glucoside (MAG; 10% final concentration) and incubated at 37° C. for 30 minutes (in vitro loading). A second aliquot (3.2 ml of the cell concentrate) was mixed with 0.8 ml of PBS buffer and incubated on ice for 30 minutes (control, unloaded cells). Similar to loading with MAG, the cells were loaded with 2-deoxyglucose (2-DOG) as described in Example 5 infra.
(4) Preservation of electrocompetent E. coli cells: The cells (resuspended in PBS buffer or on 20% sucrose) were mixed with an equal mass of preservation solution consisting of 45% 2:1 sucrose:raffinose or 45% 4:1 sucrose:MAG on ice. Altematively, the cell pellets were resuspended directly in 22.5% sucrose:raffinose or 22.5% 4:1 sucrose:MAG. The 0.5 g aliquots were distributed in 5 ml glass serum vials or 0.2 g aliquots were distributed in 1.2 ml glass serum vials. To determine the survival in preservation solution before drying, cell-containing mixtures were diluted in PBS buffer containing 20% sucrose and appropriate dilutions were spread plated in duplicate on L-agar plates.
The samples were dried by foam formation. The mixtures were foamed at 0° C. and kept at that temperature until foam formation occurred. After foam was well formed, shelf temperature was increased to 20° C. and drying continued overnight (at least 12 hours).
(5) Assaying the preserved E. coli cells: Dried samples were rehydrated at room temperature. 1 ml of rehydration solution (20% sucrose) was added to the 5 ml vials and 0.2 ml was added to the 1.2 ml vials. For the determination of preservation survival, rehydrated cells were diluted and spread plated in duplicate on L-agar plates. Plates were incubated at 37° C. overnight and colonies were counted the following day.
Bacterial culture was grown until OD550=0.5 was reached (mid-log growth stage). The cell concentrates were prepared as described previously. Control cells, which were not loaded, were incubated on ice for 30 minutes. Cell concentrates were incubated with different amounts (0.15-1%, 5%, 10% and 15%) of glucose and glucose nonmetabolizable analogs at 37° C. for 30 minutes (loading). These mixtures were preserved as described previously.
Accumulation of MAG in the cells prior to drying enhances preservation of logarithmic E. coli cells. Two cell concentrates (harvested at mid-log growth stage) were prepared as described previously. To induce uptake of MAG, 0.5% glucose was added to the growth medium (“induced culture”). Both concentrates were incubated with 10% MAG at 37° C. for 30 minutes (loading). When loading was completed, one concentrate was diluted 100-fold in PBS buffer and incubated at 37° C. for an additional 30 minutes to induce expulsion of the pre-accumulated MAG. Both concentrates were preserved as described previously.
Mid-logarithmic culture was prepared as described previously. 0.5% glucose was added to the growth medium (“induced cells”). The culture was concentrated 10-fold and the concentrates were incubated for 30 minutes with 10% MAG at different temperatures (0, 20, 40, and 60° C.). The mixtures were preserved as described previously.
Effect of incubation time on accumulation of MAG in logarithmic E. coli cells. Cell concentrates were prepared as described previously (0.5% glucose was added to the growth medium) and incubated with 10% MAG at 37° C. for 0, 2.5, 5, 15, 30, and 60 minutes. The mixtures were preserved as described previously.
Effect of growth stage on accumulation of MAG in E. coli cells. E. coli cultures were grown in L-broth with 0.5% glucose as described previously and harvested at OD550=0.1 (early-log), 0.5 (mid-log), 1.0 (late-log) and 2.0 (stationary cells). The cells in each culture were concentrated and split in two aliquots. […]

[1] = 10% MAG at 37° C., Incubated for 0 min
[2] = 10% MAG at 37° C., Incubated for 2.5 min
[3] = 10% MAG at 37° C., Incubated for 5 min
[4] = 10% MAG at 37° C., Incubated for 15 min
[5] = 10% MAG at 37° C., Incubated for 30 min
[6] = 10% MAG at 37° C., Incubated for 60 min
[7] = 10% MAG for 30 minutes, Loaded at 0° C.
[8] = 10% MAG for 30 minutes, Loaded at 20° C.
[9] = 10% MAG for 30 minutes, Loaded at 40° C.
[10] = 10% MAG for 30 minutes, Loaded at 60° C.

COC1OC(CO)C(O)C(O)C1O (centres unmarked) [MAG, a-methyl-glucoside]
Preservation Yield % Survival [1]: 2.6 +/− 0.8% | Preservation Yield Cfu/ml [1]: 5.3 × 10^7 +/− 1.7 × 10^7 Cfu/ml | Stability (7 days at RT) % Survival [1]: 1.2 +/− 0.7% | Stability (7 days at RT) Cfu/ml [1]: 2.4 × 10^7 Cfu/ml | Stability (17 days at RT) % Survival [1]: 1.8 +/− 0.5% | Stability (17 days at RT) Cfu/ml [1]: 3.6 × 10^7 Cfu/ml | Preservation Yield % Survival [2]: 5.8 +/− 1.1% | Preservation Yield Cfu/ml [2]: 1.2 × 10^8 +/− 2.1 × 10^7 Cfu/ml | Stability (7 days at RT) % Survival [2]: 4.9 +/− 0.8% | Stability (7 days at RT) Cfu/ml [2]: 9.6 × 10^7 Cfu/ml | Stability (17 days at RT) % Survival [2]: 2.9 +/− 0.6% | Stability (17 days at RT) Cfu/ml [2]: 5.9 × 10^7 Cfu/ml | Preservation Yield % Survival [3]: 9.9 +/− 0.6% | Preservation Yield Cfu/ml [3]: 2.0 × 10^8 +/− 1.1 × 10^7 Cfu/ml | Stability (7 days at RT) % Survival [3]: 6.8 +/− 1.2% | Stability (7 days at RT) Cfu/ml [3]: 1.4 × 10^8 Cfu/ml | Stability (17 days at RT) % Survival [3]: 9.5 +/− 2.7% | Stability (17 days at RT) Cfu/ml [3]: 1.9 × 10^8 Cfu/ml | Preservation Yield % Survival [4]: 16.8 +/− 2.8% | Preservation Yield Cfu/ml [4]: 3.4 × 10^8 +/− 5.6 × 10^7 Cfu/ml | Stability (7 days at RT) % Survival [4]: 10.4 +/− 0.4% | Stability (7 days at RT) Cfu/ml [4]: 2.1 × 10^8 Cfu/ml | Stability (17 days at RT) % Survival [4]: 11.8 +/− 2.6% | Stability (17 days at RT) Cfu/ml [4]: 2.4 × 10^8 Cfu/ml | Preservation Yield % Survival [5]: 19.9 +/− 2.2% | Preservation Yield Cfu/ml [5]: 4.0 × 10^8 +/− 4.4 × 10^7 Cfu/ml | Stability (7 days at RT) % Survival [5]: 13.0 +/− 2.7% | Stability (7 days at RT) Cfu/ml [5]: 2.6 × 10^8 Cfu/ml | Stability (17 days at RT) % Survival [5]: 16.8 +/− 2.6% | Stability (17 days at RT) Cfu/ml [5]: 3.4 × 10^8 Cfu/ml | Preservation Yield % Survival [6]: 22.2 +/− 3.0% | Preservation Yield Cfu/ml [6]: 4.4 × 10^8 +/− 6.1 × 10^7 Cfu/ml | Stability (7 days at RT) % Survival [6]: 16.3 +/− 1.9% | Stability (7 days at RT) Cfu/ml [6]: 3.3 × 10^8 Cfu/ml | Stability (17 days at RT) % Survival [6]: 19.3 +/− 3.9% | Stability (17 days at RT) Cfu/ml [6]: 3.9 × 10^8 Cfu/ml | Preservation Yield % Survival [7]: 8.2 +/− 1.4% | Preservation Yield Cfu/ml [7]: 1.6 × 10^8 Cfu/ml | Stability (9 Days at RT°) % Survival [7]: 5.0 +/− 0.6% | Stability (9 Days at RT°) Cfu/ml [7]: 9.4 × 10^7 Cfu/ml | Stability (16 Days at RT°) % Survival [7]: 5.2 +/− 1.5% | Stability (16 Days at RT°) Cfu/ml [7]: 9.9 × 10^7 Cfu/ml | Preservation Yield % Survival [8]: 14.1 +/− 2.6% | Preservation Yield Cfu/ml [8]: 2.7 × 10^8 Cfu/ml | Stability (9 Days at RT°) % Survival [8]: 8.7 +/− 0.6% | Stability (9 Days at RT°) Cfu/ml [8]: 1.6 × 10^8 Cfu/ml | Stability (16 Days at RT°) % Survival [8]: 7.3 +/− 1.7% | Stability (16 Days at RT°) Cfu/ml [8]: 1.4 × 10^8 Cfu/ml | Preservation Yield % Survival [9]: 23.2 +/− 3.5% | Preservation Yield Cfu/ml [9]: 4.4 × 10^8 Cfu/ml | Stability (9 Days at RT°) % Survival [9]: 28.1 +/− 3.5% | Stability (9 Days at RT°) Cfu/ml [9]: 5.3 × 10^8 Cfu/ml | Stability (16 Days at RT°) % Survival [9]: 21.0 +/− 1.9% | Stability (16 Days at RT°) Cfu/ml [9]: 3.9 × 10^8 Cfu/ml | Preservation Yield % Survival [10]: 0% | Preservation Yield Cfu/ml [10]: 1.4 × 10^4 Cfu/ml | Stability (9 Days at RT°) % Survival [10]: 0% | Stability (9 Days at RT°) Cfu/ml [10]: 1.2 × 10^4 Cfu/ml | Stability (16 Days at RT°) % Survival [10]: 0% | Stability (16 Days at RT°) Cfu/ml [10]: 1.3 × 10^4 Cfu/ml | Preservation Yield (Day 0) % Survival (OD = 0.1 (early-log)): 11.3 +/− 0.9% | Preservation Yield (Day 0) Cfu/ml (OD = 0.1 (early-log)): 1.6 × 10^7 Cfu/ml | Stability (Day 7 at RT) % Survival (OD = 0.1 (early-log)): 8.2 +/− 0.8% | Stability (Day 7 at RT) Cfu/ml (OD = 0.1 (early-log)): 1.2 × 10^7 Cfu/ml | Stability (Day 14) % Survival (OD = 0.1 (early-log)): 9.9 +/− 2.2% | Stability (Day 14) Cfu/ml (OD = 0.1 (early-log)): 1.5 × 10^7 Cfu/ml | Preservation Yield (Day 0) % Survival (OD = 0.5 (mid-log)): 22.2 +/− 2.9% | Preservation Yield (Day 0) Cfu/ml (OD = 0.5 (mid-log)): 5.5 × 10^8 Cfu/ml | Stability (Day 7 at RT) % Survival (OD = 0.5 (mid-log)): 21.6 +/− 4.7% | Stability (Day 7 at RT) Cfu/ml (OD = 0.5 (mid-log)): 5.3 × 10^8 Cfu/ml | Stability (Day 14) % Survival (OD = 0.5 (mid-log)): 17.4 +/− 1.2% | Stability (Day 14) Cfu/ml (OD = 0.5 (mid-log)): 4.3 × 10^8 Cfu/ml | Preservation Yield (Day 0) % Survival (OD = 1.0 (late-log)): 26.3 +/− 4.7% | Preservation Yield (Day 0) Cfu/ml (OD = 1.0 (late-log)): 2.3 × 10^9 Cfu/ml | Stability (Day 7 at RT) % Survival (OD = 1.0 (late-log)): 36.1 +/− 7.5% | Stability (Day 7 at RT) Cfu/ml (OD = 1.0 (late-log)): 3.2 × 10^9 Cfu/ml | Stability (Day 14) % Survival (OD = 1.0 (late-log)): 33.0 +/− 5.7% | Stability (Day 14) Cfu/ml (OD = 1.0 (late-log)): 2.9 × 10^9 Cfu/ml | Preservation Yield (Day 0) % Survival (OD = 2.0 (stationary cells)): 38.8 +/− 5.8% | Preservation Yield (Day 0) Cfu/ml (OD = 2.0 (stationary cells)): 2.8 × 10^9 Cfu/ml | Stability (Day 7 at RT) % Survival (OD = 2.0 (stationary cells)): 29.9 +/− 3.6% | Stability (Day 7 at RT) Cfu/ml (OD = 2.0 (stationary cells)): 2.1 × 10^9 Cfu/ml | Stability (Day 14) % Survival (OD = 2.0 (stationary cells)): 35.3 +/− 7.5% | Stability (Day 14) Cfu/ml (OD = 2.0 (stationary cells)): 2.5 × 10^9 Cfu/ml | survived drying (mid-logarithmic cells loaded with 1% at 37° C. for 30 minutes): 12% | survived drying (mid-logarithmic cells loaded with 5% at 37° C. for 30 minutes): 24%

Reference: patent US20050074867A1, “Preservation of competent cells at ambient temperatures” (priority 2001, published 2005)
